In US20210323977A1, “PYRROLIDINYL AMIDE COMPOUNDS FOR THE TREATMENT OF AUTOIMMUNE DISEASE” (Hoffmann-La Roche Inc., priority 2018, published 2021):

These molecules were tested against T1, human TLR9 (Homo sapiens, UniProt Q9NR96) (assay: HEK293-Blue-hTLR-9 cells assay). Conditions: HEK293-Blue-hTLR9 cells, SEAP reporter, ODN2006 stimulation, 20 hrs.
T1 sequence (Q9NR96 26-1032): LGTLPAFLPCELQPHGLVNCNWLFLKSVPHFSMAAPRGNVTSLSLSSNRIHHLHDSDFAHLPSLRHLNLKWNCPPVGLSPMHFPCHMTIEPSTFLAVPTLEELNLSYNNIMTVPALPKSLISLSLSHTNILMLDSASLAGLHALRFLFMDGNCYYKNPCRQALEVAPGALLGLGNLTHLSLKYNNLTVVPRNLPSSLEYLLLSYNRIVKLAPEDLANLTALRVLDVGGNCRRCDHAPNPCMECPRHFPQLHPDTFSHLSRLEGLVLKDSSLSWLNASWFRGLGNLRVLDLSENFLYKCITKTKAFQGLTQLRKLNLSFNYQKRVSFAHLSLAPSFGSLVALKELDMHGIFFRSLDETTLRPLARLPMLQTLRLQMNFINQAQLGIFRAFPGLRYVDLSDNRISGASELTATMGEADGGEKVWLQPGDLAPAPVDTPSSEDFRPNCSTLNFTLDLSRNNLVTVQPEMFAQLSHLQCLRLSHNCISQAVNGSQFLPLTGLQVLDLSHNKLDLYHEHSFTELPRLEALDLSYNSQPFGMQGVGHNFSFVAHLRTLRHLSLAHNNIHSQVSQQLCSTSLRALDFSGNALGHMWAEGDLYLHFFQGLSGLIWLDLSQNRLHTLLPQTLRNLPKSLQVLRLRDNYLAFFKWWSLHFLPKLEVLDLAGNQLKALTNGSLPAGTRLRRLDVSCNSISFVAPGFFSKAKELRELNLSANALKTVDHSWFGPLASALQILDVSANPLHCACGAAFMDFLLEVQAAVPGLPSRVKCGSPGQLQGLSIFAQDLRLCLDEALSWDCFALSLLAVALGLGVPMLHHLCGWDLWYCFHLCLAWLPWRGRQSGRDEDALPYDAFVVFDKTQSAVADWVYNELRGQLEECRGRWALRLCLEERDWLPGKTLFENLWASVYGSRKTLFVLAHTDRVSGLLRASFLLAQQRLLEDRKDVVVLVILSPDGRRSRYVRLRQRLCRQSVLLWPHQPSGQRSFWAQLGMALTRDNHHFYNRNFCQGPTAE
Assay type: cell-based
Source text: HEK293-Blue-hTLR-9 Cells Assay:
A stable HEK293-Blue-hTLR-9 cell line was purchased from InvivoGen (Cat. #: hkb-htlh9, San Diego, Calif., USA). These cells were originally designed for studying the stimulation of human TLR9 by monitoring the activation of NF-κB. A SEAP (secreted embryonic alkaline phosphatase) reporter gene was placed under the control of the IFN-β minimal promoter fused to five NF-κB and AP-1-binding sites. The SEAP was induced by activating NF-κB and AP-1 via stimulating HEK-Blue hTLR9 cells with TLR9 ligands. Therefore the reporter expression was declined by TLR9 antagonist under the stimulation of a ligand, such as ODN2006 (Cat. #: tlrl-2006-1, Invivogen, San Diego, Calif., USA), for incubation of 20 hrs. The cell culture supernatant SEAP reporter activity was determined using QUANTI-Blue™ kit (Cat. #: rep-qb1, Invivogen, San Diego, Calif., USA) at a wavelength of 640 nm, a detection medium that turns purple or blue in the presence of alkaline phosphatase.
HEK293-Blue-hTLR9 cells were incubated at a density of 250,000-450,000 cells/mL in a volume of 170 μL in a 96-well plate in Dulbecco's Modified Eagle's medium (DMEM) containing 4.5 g/L glucose, 50 U/mL penicillin, […], […], 2 mM L-glutamine, 10% (v/v) heat-inactivated fetal bovine serum with addition of 20 sL test compound in a serial dilution in the presence of final DMSO at 1% and 10 sL of 20 uM ODN2006 in above DMEM, perform incubation under 37° C. in a CO2 incubator for 20 hrs. Then 20 sL of the supernatant from each well was incubated with 180 μL Quanti-blue substrate solution at 37° C. for 2 hrs and the absorbance was read at 620-655 nm using a spectrophotometer. The signalling pathway that TLR9 activation leads to downstream NF-x3B activation has been widely accepted, and therefore similar reporter assay was modified for evaluating TLR9 antagonist.

SMILES | IC50
CN1CCC(NC(=O)[C@@H]2CN(c3ccc(C#N)c4ncccc34)C[C@H]2C2CC2)CC1 (relative stereo) [Example 14, Trans-1-(8-cyano-5-quinolyl)-4-cyclopropyl-N-(1-methyl-4-piperidyl)pyrrolidine-3-carboxamide] | 4.5 µM
CN1CCC(NC(=O)[C@@H]2CN(c3ccc(C#N)c4ncccc34)C[C@H]2C(F)(F)F)CC1 (relative stereo) [Example 17, Trans-1-(8-cyano-5-quinolyl)-N-(1-methyl-4-piperidyl)-4-(trifluoromethyl)pyrrolidine-3-carboxamide] | 1 µM
C[C@@H]1CN(c2ccc(C#N)c3ncccc23)C[C@H]1C(=O)NC1CCN(C)CC1 (relative stereo) [Example 28] | 6.4 µM
CC[C@@H]1CN(c2ccc(C#N)c3ncccc23)C[C@H]1C(=O)NC1CCN(C)CC1 (relative stereo) [Example 29, Trans-1-(8-cyano-5-quinolyl)-4-ethyl-N-(1-methyl-4-piperidyl)pyrrolidine-3-carboxamide] | 6.9 µM
C[C@@H]1CN(c2ccc(C#N)c3ncccc23)C[C@H]1C(=O)N1CCC2(CCNCC2)CC1 (relative stereo) [Example 32, Trans-5-[3-(3,9-diazaspiro[5.5]undecane-3-carbonyl)-4-methyl-pyrrolidin-1-yl]quinoline-8-carbonitrile] | 2.4 µM
CC(C)[C@@H]1CN(c2ccc(C#N)c3ncccc23)C[C@H]1C(=O)NC1CCN(C)CC1 (relative stereo) [Example 37, Trans-1-(8-cyano-5-quinolyl)-4-isopropyl-N-(1-methyl-4-piperidyl)pyrrolidine-3-carboxamide] | 5.2 µM
CN1CCC(NC(=O)[C@@H]2CN(c3ccc(C#N)c4ncccc34)C[C@H]2C(F)F)CC1 (relative stereo) [Example 40, Trans-1-(8-cyano-5-quinolyl)-4-(difluoromethyl)-N-(1-methyl-4-piperidyl)pyrrolidine-3-carboxamide] | 6.9 µM
N[C@@H]1CCC[C@H](NC(=O)C2CN(c3ccc(C(F)(F)F)c4nccnc34)CC23CC3)C1 (relative stereo) [Example 43, Cis-N-(3-aminocyclohexyl)-5-[8-(trifluoromethyl)quinoxalin-5-yl]-5-azaspiro[2.4]heptane-7-carboxamide] | 17.9 µM
CN1CCC(NC(=O)[C@@H]2CN(c3ccc(Cl)c4ncccc34)C[C@H]2C(F)(F)F)CC1 (relative stereo) [Example 46, Trans-1-(8-chloro-5-quinolyl)-N-(1-methyl-4-piperidyl)-4-(trifluoromethyl)pyrrolidine-3-carboxamide] | 15.6 µM
C[C@@H]1CN(c2ccc(C#N)c3ncccc23)C[C@H]1C(=O)N1CCC2(CCNC2)C1 (relative stereo) [Example 53, Trans-5-[3-(2,7-diazaspiro[4.4]nonane-2-carbonyl)-4-methyl-pyrrolidin-1-yl]quinoline-8-carbonitrile] | 2.6 µM
CN1CCC(NC(=O)C2CN(c3ccc(C#N)c4nccnc34)CC23CC3)CC1 (single isomer, unassigned) [Example 7A, 5-(8-Cyanoquinoxalin-5-yl)-N-(1-methyl-4-piperidyl)-5-azaspiro[2.4]heptane-7-carboxamide] | 3.2 µM
CN1CCC(NC(=O)C2CN(c3ccc(C#N)c4nccnc34)CC23CC3)CC1 (single isomer, unassigned) [Example 7B, 5-(8-Cyanoquinoxalin-5-yl)-N-(1-methyl-4-piperidyl)-5-azaspiro[2.4]heptane-7-carboxamide] | 3.3 µM
N#Cc1ccc(N2CC(C(=O)NC3CCCNCC3)C(C(F)(F)F)C2)c2cccnc12 (single isomer, unassigned) [Example 30A, N-(azepan-4-yl)-1-(8-cyano-5-quinolyl)-4-(trifluoromethyl)pyrrolidine-3-carboxamide] | 17.5 µM
N#Cc1ccc(N2CC(C(=O)NC3CCCNCC3)C(C(F)(F)F)C2)c2cccnc12 (single isomer, unassigned) [Example 30B, N-(azepan-4-yl)-1-(8-cyano-5-quinolyl)-4-(trifluoromethyl)pyrrolidine-3-carboxamide] | 16.2 µM
CN1CCC(NC(=O)C2CN(c3ccc(C#N)c4ncccc34)CC23CC3)CC1 (single isomer, unassigned) [Example 41A, 5-(8-Cyano-5-quinolyl)-N-(1-methyl-4-piperidyl)-5-azaspiro[2.4]heptane-7-carboxamide] | 4.5 µM
C[C@@H]1CN(c2ccc(C#N)c3ncccc23)C[C@H]1C(=O)NC1CCCNCC1 (single isomer, unassigned) [Example 52A, Trans-N-(azepan-4-yl)-1-(8-cyano-5-quinolyl)-4-methyl-pyrrolidine-3-carboxamide] | 12.3 µM
C[C@@H]1CN(c2ccc(C#N)c3ncccc23)C[C@H]1C(=O)NC1CCCNCC1 (single isomer, unassigned) [Example 52B, Trans-N-(azepan-4-yl)-1-(8-cyano-5-quinolyl)-4-methyl-pyrrolidine-3-carboxamide] | 11.6 µM
N#Cc1ccc(N2CC(C(=O)NC[C@H]3CNCCO3)C3(CC3)C2)c2nccnc12 (single isomer, unassigned) [Example 70A] | 6.9 µM
N#Cc1ccc(N2CC(C(=O)NC[C@H]3CNCCO3)C3(CC3)C2)c2nccnc12 (single isomer, unassigned) [Example 70B] | 2.8 µM
N#Cc1ccc(N2CC(C(=O)NC[C@@H]3CNCCO3)C3(CC3)C2)c2nccnc12 (single isomer, unassigned) [Example 71A] | 3.8 µM
N#Cc1ccc(N2CC(C(=O)NC[C@@H]3CNCCO3)C3(CC3)C2)c2nccnc12 (single isomer, unassigned) [Example 71B] | 1.9 µM
CN1CCC(NC(=O)[C@H]2CN(c3ccc(C#N)c4nccnc34)C[C@@H]2C(F)(F)F)CC1 [Example 1, (3R,4R)-1-(8-cyanoquinoxalin-5-yl)-N-(1-methyl-4-piperidyl)-4-(trifluoromethyl) pyrrolidine-3-carboxamide] | 5.2 µM
CN1CCC(NC(=O)[C@H]2CN(c3ccc(C(F)(F)F)c4nccnc34)C[C@@H]2C(F)(F)F)CC1 [Example 2, (3R,4R)—N-(1-methyl-4-piperidyl)-4-(trifluoromethyl)-1-[8-(trifluoromethyl)quinoxalin-5-yl]pyrrolidine-3-carboxamide] | 5.5 µM
C[C@H]1CN(c2ccc(C#N)c3nccnc23)C[C@@H]1C(=O)NC1CCN(C)CC1 [Example 3, (3R,4R)-1-(8-cyanoquinoxalin-5-yl)-4-methyl-N-(1-methyl-4-piperidyl)pyrrolidine-3-carboxamide] | 5.7 µM
CN1CCC(NC(=O)[C@H]2CN(c3ccc(C#N)c4ncccc34)C[C@@H]2C(F)(F)F)CC1 [Example 4, (3R,4R)-1-(8-cyano-5-quinolyl)-N-(1-methyl-4-piperidyl)-4-(trifluoromethyl)pyrrolidine-3-carboxamide] | 9.9 µM
C[C@H]1CN(c2ccc(C(F)(F)F)c3nccnc23)C[C@@H]1C(=O)NC1CCN(C)CC1 [Example 5, (3R,4R)-4-methyl-N-(1-methyl-4-piperidyl)-1-[8-(trifluoromethyl)quinoxalin-5-yl]pyrrolidine-3-carboxamide] | 10.4 µM
